Experimental data published in patent US20240033211A1, “EXTRACT OF AT LEAST ONE PLANT OF THE CROCUS SATIVUS SPECIES COMPRISING A HIGH CONTENT OF CROCINS AND A LOW CONTENT OF SAFRANAL, AND COSMETIC USE THEREOF AS ANTIOXIDANT” (L'OREAL, priority 2020, published 2024).

Test: Study of squalene peroxidation (UVA, hematoporphyrin photosensitizer, singlet oxygen)
Assay type: biochemical
Excerpt: Protocol: The principle of the test is to determine, via the assaying of squalene (Sq) and its photo-oxidation product, the efficacy of an active agent against this form of photo-peroxidation.
The test makes use of squalene in the presence of a photosensitizer, hematoporphyrin. Under the action of UVA rays, singlet oxygen (^1O2) is generated. This highly reactive form of oxygen degrades the squalene by oxidation of the double bonds to form squalene hydroperoxides (Sq-OOH).
In the context of the test, the exposure of squalene combined with hematoporphyrin is carried out in the presence of various concentrations of extract obtained according to Example 2 (according to the invention) and according to Example 3 (outside the invention). The reaction medium is ethanol.
Equipment and Reagents: • Squalene [Sigma S-3626] • Hematoporphyrine Free Base (approx. 70%) [Sigma—ref H-7253] • HPLC or UPLC system in reverse phase mode, detection in UV mode (205 nm)
Procedure: • ethanol solution containing 500 μg/ml of Sq and 2 μg/ml hematoporphyrin+extract to be tested • expose to UVA rays for the dose of 5 J/cm^2 • measure the amount of Sq and SqOOH before and after exposure • plot % inhibition as a function of the amount of extract tested.
*IC25: concentration of raw material needed to inhibit squalene peroxidation by 25%. […]

vitamin E
IC50 (squalene peroxidation) (comparison value for vitamin E, printed as % (=250 ppm)): ~0.025% | IC50 (concentration of raw material needed to inhibit squalene peroxidation by 50%) (solution in ethanol, UVA 5 J/cm^2): ~250 ppm
